# Experimental data reported in PubChem BioAssay AID1963841 (Molecular Pharmacology Branch, DTP, NCI, 2024).
# System: 439559-082-T-J2-PDC spheroid viability
# Assay: Anticancer human tumor 439559-082-T-J2-PDC patient-derived colon adenocarcinoma cell line growth inhibition [POLQ]
# Conditions: spheroids with HUVEC and MSC; for IC50: curve of first compound; for viability, T/C: stronger effect = lower value
# How it was run: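 PDC + HUVEC + MSC complex spheroids; POLQ inhibitors ± partner drugs; top conc. at/near clinical Cmax, else 10 microM (SN-38 1 microM), half-log dilutions; 37 degrees C, 5% CO2.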
# [1] = second compound 0.0316 µM, first compound 0.0316 µM
# [2] = second compound 0.0316 µM, first compound 0.1 µM
# [3] = second compound 0.0316 µM, first compound 0.316 µM
# [4] = second compound 0.0316 µM, first compound 1 µM
# [5] = second compound 0.0316 µM, first compound 3.16 µM
# [6] = second compound 0.0316 µM, first compound 10 µM
# [7] = second compound 0.1 µM, first compound 0.0316 µM
# [8] = second compound 0.1 µM, first compound 0.1 µM
# [9] = second compound 0.1 µM, first compound 0.316 µM
# [10] = second compound 0.1 µM, first compound 1 µM
# [11] = second compound 0.1 µM, first compound 3.16 µM
# [12] = second compound 0.1 µM, first compound 10 µM
# [13] = second compound 0.316 µM, first compound 0.0316 µM
# [14] = second compound 0.316 µM, first compound 0.1 µM
# [15] = second compound 0.316 µM, first compound 0.316 µM
# [16] = second compound 0.316 µM, first compound 1 µM
# [17] = second compound 0.316 µM, first compound 3.16 µM
# [18] = second compound 0.316 µM, first compound 10 µM
# [19] = second compound 1 µM, first compound 0.0316 µM
# [20] = second compound 1 µM, first compound 0.1 µM
# [21] = second compound 1 µM, first compound 0.316 µM
# [22] = second compound 1 µM, first compound 1 µM
# [23] = second compound 1 µM, first compound 3.16 µM
# [24] = second compound 1 µM, first compound 10 µM
# [25] = second compound 3.16 µM, first compound 0.0316 µM
# [26] = second compound 3.16 µM, first compound 0.1 µM
# [27] = second compound 3.16 µM, first compound 0.316 µM
# [28] = second compound 3.16 µM, first compound 1 µM
# [29] = second compound 3.16 µM, first compound 3.16 µM
# [30] = second compound 3.16 µM, first compound 10 µM
# [31] = second compound 10 µM, first compound 0.0316 µM
# [32] = second compound 10 µM, first compound 0.1 µM
# [33] = second compound 10 µM, first compound 0.316 µM
# [34] = second compound 10 µM, first compound 1 µM
# [35] = second compound 10 µM, first compound 3.16 µM
# [36] = second compound 10 µM, first compound 10 µM
# 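Also: spheroids exposed to compounds for seven days before readout.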
# 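For viability, T/C in this document: 100% = DMSO vehicle control viability.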
structure (smiles),measurement,setting,value
CC1COCCN1c1cc(C2(O)CC3CCC(C2)O3)c2cnn(-c3ccn[nH]3)c2n1 (stereo unspecified) + COC1C(OC(N)=O)C(O)C(Oc2ccc3c(O)c(NC(=O)c4ccc(O)c(CC=C(C)C)c4)c(=O)oc3c2C)OC1(C)C,IC50,second compound 0.0316 µM,2580 nM
same,IC50,second compound 0.1 µM,2620 nM
same,IC50,second compound 0.316 µM,2080 nM
same,IC50,second compound 1 µM,1920 nM
same,IC50,second compound 3.16 µM,1840 nM
same,IC50,second compound 10 µM,1250 nM
same,"viability, T/C",[1],97%
same,"viability, T/C",[2],89.6%
same,"viability, T/C",[3],67.5%
same,"viability, T/C",[4],58.4%
same,"viability, T/C",[5],48.7%
same,"viability, T/C",[6],45.1%
same,"viability, T/C",[7],95.1%
same,"viability, T/C",[8],86.9%
same,"viability, T/C",[9],68.4%
same,"viability, T/C",[10],58.3%
same,"viability, T/C",[11],46.9%
same,"viability, T/C",[12],46.8%
same,"viability, T/C",[13],99%
same,"viability, T/C",[14],83.1%
same,"viability, T/C",[15],69.9%
same,"viability, T/C",[16],56.8%
same,"viability, T/C",[17],42.2%
same,"viability, T/C",[18],46.3%
same,"viability, T/C",[19],93.6%
same,"viability, T/C",[20],89.5%
same,"viability, T/C",[21],66.5%
same,"viability, T/C",[22],56.1%
same,"viability, T/C",[23],48.2%
same,"viability, T/C",[24],42.4%
same,"viability, T/C",[25],89.2%
same,"viability, T/C",[26],85%
same,"viability, T/C",[27],65.3%
same,"viability, T/C",[28],54.3%
same,"viability, T/C",[29],47.9%
same,"viability, T/C",[30],45.5%
same,"viability, T/C",[31],89.1%
same,"viability, T/C",[32],87.4%
same,"viability, T/C",[33],66.4%
same,"viability, T/C",[34],52.5%
same,"viability, T/C",[35],46.7%
same,"viability, T/C",[36],44.8%
COc1cc(C2c3cc4c(cc3C(OC3OC5COC(C)OC5C(O)C3O)C3COC(=O)C23)OCO4)cc(OC)c1O (stereo unspecified) + Cc1cccc(N(C)C(=O)C2C(O)CCN2c2nc(C)cc(C(F)(F)F)c2C#N)c1,IC50,second compound 0.0316 µM,> 10000 nM
same,IC50,second compound 0.1 µM,> 10000 nM
same,IC50,second compound 0.316 µM,> 10000 nM
same,IC50,second compound 1 µM,> 10000 nM
same,IC50,second compound 3.16 µM,> 10000 nM
same,IC50,second compound 10 µM,> 10000 nM
same,"viability, T/C",[1],90.7%
same,"viability, T/C",[2],99.6%
same,"viability, T/C",[3],95.6%
same,"viability, T/C",[4],95.3%
same,"viability, T/C",[5],76.8%
same,"viability, T/C",[6],68.8%
same,"viability, T/C",[7],103%
same,"viability, T/C",[8],101%
same,"viability, T/C",[9],98.1%
same,"viability, T/C",[10],89.8%
same,"viability, T/C",[11],83.4%
same,"viability, T/C",[12],79.1%
same,"viability, T/C",[13],96.9%
same,"viability, T/C",[14],92.4%
same,"viability, T/C",[15],95.2%
same,"viability, T/C",[16],88.2%
same,"viability, T/C",[17],82.1%
same,"viability, T/C",[18],69.1%
same,"viability, T/C",[19],108%
same,"viability, T/C",[20],90.8%
same,"viability, T/C",[21],93.5%
same,"viability, T/C",[22],90.4%
same,"viability, T/C",[23],84.2%
same,"viability, T/C",[24],73.4%
same,"viability, T/C",[25],90.9%
same,"viability, T/C",[26],102%
same,"viability, T/C",[27],90.8%
same,"viability, T/C",[28],83.3%
same,"viability, T/C",[29],82.1%
same,"viability, T/C",[30],70.6%
same,"viability, T/C",[31],92.4%
same,"viability, T/C",[32],82.5%
same,"viability, T/C",[33],95.4%
same,"viability, T/C",[34],86.8%
same,"viability, T/C",[35],71%
same,"viability, T/C",[36],59.9%
COc1cccc(OCCCN)c1-c1cc(Nc2cnc(C#N)cn2)n[nH]1 + COC1C(OC(N)=O)C(O)C(Oc2ccc3c(O)c(NC(=O)c4ccc(O)c(CC=C(C)C)c4)c(=O)oc3c2C)OC1(C)C,IC50,second compound 0.0316 µM,142 nM
same,IC50,second compound 0.1 µM,158 nM
same,IC50,second compound 0.316 µM,145 nM
same,IC50,second compound 1 µM,109 nM
same,IC50,second compound 3.16 µM,133 nM
same,IC50,second compound 10 µM,128 nM
same,"viability, T/C","second compound 0.0316 µM, first compound 0.00316 µM",87%
same,"viability, T/C","second compound 0.0316 µM, first compound 0.01 µM",88.1%
same,"viability, T/C",[1],70.1%
same,"viability, T/C",[2],61.4%
same,"viability, T/C",[3],31.3%
same,"viability, T/C",[4],17.4%
same,"viability, T/C","second compound 0.1 µM, first compound 0.00316 µM",98.5%
same,"viability, T/C","second compound 0.1 µM, first compound 0.01 µM",82%
same,"viability, T/C",[7],76.4%
same,"viability, T/C",[8],65.3%
same,"viability, T/C",[9],30.9%
same,"viability, T/C",[10],18.3%
same,"viability, T/C","second compound 0.316 µM, first compound 0.00316 µM",94.6%
same,"viability, T/C","second compound 0.316 µM, first compound 0.01 µM",90.3%
same,"viability, T/C",[13],72.3%
same,"viability, T/C",[14],62%
same,"viability, T/C",[15],31.7%
same,"viability, T/C",[16],19.1%
same,"viability, T/C","second compound 1 µM, first compound 0.00316 µM",105%
same,"viability, T/C","second compound 1 µM, first compound 0.01 µM",82.1%
same,"viability, T/C",[19],72.6%
same,"viability, T/C",[20],52.9%
same,"viability, T/C",[21],31.8%
same,"viability, T/C",[22],16.4%
same,"viability, T/C","second compound 3.16 µM, first compound 0.00316 µM",102%
same,"viability, T/C","second compound 3.16 µM, first compound 0.01 µM",85.6%
same,"viability, T/C",[25],73.6%
same,"viability, T/C",[26],59.1%
same,"viability, T/C",[27],30.9%
same,"viability, T/C",[28],18.2%
same,"viability, T/C","second compound 10 µM, first compound 0.00316 µM",103%
same,"viability, T/C","second compound 10 µM, first compound 0.01 µM",86.8%
same,"viability, T/C",[31],77%
same,"viability, T/C",[32],56.4%
same,"viability, T/C",[33],30.5%
same,"viability, T/C",[34],17.5%
